Test results taken from ChEMBL document CHEMBL1629620 (Antimicrob Agents Chemother, 2009).

Key:
HFF = test: Antiproliferative activity against HFF after 3 days by coulter counter assay; assay type: cell-based; conditions: Homo sapiens, 72 h
Cowpox virus [1] = test: Antiviral activity against Cowpox virus Brighton infected in HFF assessed as reduction of plaque formation after 3 days; assay type: functional, organism-based; conditions: 72 h
Cowpox virus [2] = test: Ratio of compound EC50 to cidofovir EC50 for Cowpox virus Brighton; assay type: functional
Vaccinia virus [3] = test: Antiviral activity against Vaccinia virus Copenhagen infected in HFF assessed as reduction of plaque formation after 3 days; assay type: functional, organism-based; conditions: Orthopoxvirus vaccinia, 72 h
Vaccinia virus [4] = test: Ratio of compound EC50 to cidofovir EC50 for Vaccinia virus WR; assay type: functional, Orthopoxvirus vaccinia
Vaccinia virus [5] = test: Ratio of compound EC50 to cidofovir EC50 for Vaccinia virus Copenhagen; assay type: functional, Orthopoxvirus vaccinia
[6] = Cytotoxicity against HFF after 7 days by neutral red uptake assay; assay type: cell-based; conditions: human, HFF cells
Vaccinia virus [7] = test: Antiviral activity against Vaccinia virus WR infected in BALB/c mouse assessed as uncured animal at 50 mg/kg, ip bid for 5 days administered 24 hrs after infection relative to control; assay type: functional, Orthopoxvirus vaccinia; conditions: route intraperitoneal
Cowpox virus [8] = test: Antiviral activity against Cowpox virus Brighton infected in BALB/c mouse assessed as uncured animal at 1.5 mg/kg, po bid for 5 days administered 24 hrs after infection relative to control; assay type: functional
Cowpox virus [9] = test: Antiviral activity against Cowpox virus Brighton infected in BALB/c mouse assessed as uncured animal at 5 mg/kg, ip bid for 5 days administered 24 hrs after infection relative to control; assay type: functional; conditions: route intraperitoneal
Cowpox virus [10] = test: Antiviral activity against Cowpox virus Brighton infected in BALB/c mouse assessed as uncured animal at 5 mg/kg, po bid for 5 days administered 2 days after infection relative to control; assay type: functional
Vaccinia virus [11] = test: Antiviral activity against Vaccinia virus WR infected in BALB/c mouse assessed as uncured animal at 15 mg/kg, ip bid for 5 days administered 24 hrs after infection relative to control; assay type: functional, Orthopoxvirus vaccinia; conditions: route intraperitoneal
Cowpox virus [12] = test: Antiviral activity against Cowpox virus Brighton infected in BALB/c mouse assessed as uncured animal at 15 mg/kg, po bid for 5 days administered 3 days after infection relative to control; assay type: functional
Cowpox virus [13] = test: Antiviral activity against Cowpox virus Brighton infected in BALB/c mouse assessed as uncured animal at 5 mg/kg, po bid for 5 days administered 8 days after infection relative to control; assay type: functional
Cowpox virus [14] = test: Antiviral activity against Cowpox virus Brighton infected in BALB/c mouse assessed as uncured animal at 5 mg/kg, po bid for 5 days administered 4 days after infection relative to control; assay type: functional
Cowpox virus [15] = test: Antiviral activity against Cowpox virus Brighton infected in BALB/c mouse assessed as day of death at 15 mg/kg, po bid for 5 days administered 3 days after infection; assay type: functional
Vaccinia virus [16] = test: Antiviral activity against Vaccinia virus WR infected in HFF assessed as inhibition of DNA synthesis after 24 hrs by PCR analysis; assay type: functional, organism-based; conditions: Orthopoxvirus vaccinia
Cowpox virus [17] = test: Antiviral activity against Cowpox virus Brighton infected in BALB/c mouse assessed as uncured animal at 5 mg/kg, po bid for 5 days administered 5 days after infection relative to control; assay type: functional
Cowpox virus [18] = test: Antiviral activity against Cowpox virus Brighton infected in BALB/c mouse assessed as uncured animal at 1.5 mg/kg, po bid for 5 days administered 3 days after infection relative to control; assay type: functional
Vaccinia virus [19] = test: Antiviral activity against Vaccinia virus WR infected in HFF assessed as reduction of plaque formation after 3 days; assay type: functional, organism-based; conditions: Orthopoxvirus vaccinia, 72 h
Cowpox virus [20] = test: Antiviral activity against Cowpox virus Brighton infected in BALB/c mouse assessed as day of death at 1.5 mg/kg, po bid for 5 days administered 3 days after infection; assay type: functional
Cowpox virus [21] = test: Antiviral activity against Cowpox virus Brighton infected in BALB/c mouse assessed as day of death at 5 mg/kg, po bid for 5 days administered 8 days after infection; assay type: functional
Cowpox virus [22] = test: Antiviral activity against Cowpox virus Brighton infected in BALB/c mouse assessed as uncured animal at 1.5 mg/kg, po bid for 5 days administered 2 days after infection relative to control; assay type: functional
Cowpox virus [23] = test: Antiviral activity against Cowpox virus Brighton infected in BALB/c mouse assessed as uncured animal at 15 mg/kg, po bid for 5 days administered 24 hrs after infection relative to control; assay type: functional
Cowpox virus [24] = test: Antiviral activity against Cowpox virus Brighton infected in BALB/c mouse assessed as uncured animal at 5 mg/kg, po bid for 5 days administered 24 hrs after infection relative to control; assay type: functional
Vaccinia virus [25] = test: Antiviral activity against Vaccinia virus WR infected in BALB/c mouse assessed as uncured animal at 5 mg/kg, ip bid for 5 days administered 24 hrs after infection relative to control; assay type: functional, Orthopoxvirus vaccinia; conditions: route intraperitoneal
Vaccinia virus [26] = test: Antiviral activity against Vaccinia virus WR infected in BALB/c mouse assessed as day of death at 15 mg/kg, ip bid for 5 days administered 24 hrs after infection; assay type: functional, Orthopoxvirus vaccinia; conditions: route intraperitoneal
Cowpox virus [27] = test: Antiviral activity against Cowpox virus Brighton infected in BALB/c mouse assessed as uncured animal at 5 mg/kg, po bid for 5 days administered 3 days after infection relative to control; assay type: functional
Cowpox virus [28] = test: Antiviral activity against Cowpox virus Brighton infected in BALB/c mouse assessed as uncured animal at 1.5 mg/kg, ip bid for 5 days administered 24 hrs after infection relative to control; assay type: functional; conditions: route intraperitoneal
Cowpox virus [29] = test: Antiviral activity against Cowpox virus Brighton infected in BALB/c mouse assessed as day of death at 15 mg/kg, po bid for 5 days administered 2 days after infection; assay type: functional
Cowpox virus [30] = test: Antiviral activity against Cowpox virus Brighton infected in BALB/c mouse assessed as day of death at 5 mg/kg, po bid for 5 days administered 2 days after infection; assay type: functional
Cowpox virus [31] = test: Antiviral activity against Cowpox virus Brighton infected in BALB/c mouse assessed as day of death at 5 mg/kg, po bid for 5 days administered 5 days after infection; assay type: functional
Cowpox virus [32] = test: Antiviral activity against Cowpox virus Brighton infected in BALB/c mouse assessed as day of death at 5 mg/kg, po bid for 5 days administered 4 days after infection; assay type: functional
Cowpox virus [33] = test: Antiviral activity against Cowpox virus Brighton infected in BALB/c mouse assessed as uncured animal at 15 mg/kg, po bid for 5 days administered 2 days after infection relative to control; assay type: functional
Cowpox virus [34] = test: Antiviral activity against Cowpox virus Brighton infected in BALB/c mouse assessed as uncured animal at 15 mg/kg, ip qd for 5 days administered 24 hrs after infection relative to control; assay type: functional; conditions: route intraperitoneal
Cowpox virus [35] = test: Antiviral activity against Cowpox virus Brighton infected in BALB/c mouse assessed as day of death at 15 mg/kg, ip qd for 5 days administered 5 days after infection; assay type: functional; conditions: route intraperitoneal
Cowpox virus [36] = test: Antiviral activity against Cowpox virus Brighton infected in BALB/c mouse assessed as uncured animal at 15 mg/kg, ip qd for 5 days administered 5 days after infection relative to control; assay type: functional; conditions: route intraperitoneal
Vaccinia virus [37] = test: Antiviral activity against Vaccinia virus WR infected in BALB/c mouse assessed as uncured animal at 15 mg/kg, ip qd for 5 days administered 24 hrs after infection relative to control; assay type: functional, Orthopoxvirus vaccinia; conditions: route intraperitoneal
Cowpox virus [38] = test: Antiviral activity against Cowpox virus Brighton infected in BALB/c mouse assessed as day of death at 15 mg/kg, ip qd for 5 days administered 8 days after infection; assay type: functional; conditions: route intraperitoneal
Cowpox virus [39] = test: Antiviral activity against Cowpox virus Brighton infected in BALB/c mouse assessed as uncured animal at 15 mg/kg, ip qd for 5 days administered 8 days after infection relative to control; assay type: functional; conditions: route intraperitoneal
Cowpox virus [40] = test: Antiviral activity against Cowpox virus Brighton infected in BALB/c mouse assessed as uncured animal at 15 mg/kg, ip qd for 5 days administered 4 days after infection relative to control; assay type: functional; conditions: route intraperitoneal
Cowpox virus [41] = test: Antiviral activity against Cowpox virus Brighton infected in BALB/c mouse assessed as uncured animal at 15 mg/kg, ip qd for 5 days administered 2 days after infection relative to control; assay type: functional; conditions: route intraperitoneal
Cowpox virus [42] = test: Antiviral activity against Cowpox virus Brighton infected in BALB/c mouse assessed as uncured animal at 15 mg/kg, ip qd for 5 days administered 3 days after infection relative to control; assay type: functional; conditions: route intraperitoneal

## O=c1[nH]c(=O)n([C@H]2C[C@H](O)[C@@H](CO)S2)cc1Br
HFF
  IC50: 200 nM
Cowpox virus [1]
  EC50: 50 nM
Cowpox virus [2]
  Ratio EC50: 20
Vaccinia virus [3]
  EC50: 90 nM
Vaccinia virus [4]
  Ratio EC50: 20
Vaccinia virus [5]
  Ratio EC50: 20
[6]
  CC50 at 168 h: > 100000 nM

## O=c1[nH]c(=O)n([C@H]2C[C@H](O)[C@@H](CO)S2)cc1C(F)(F)F
HFF
  IC50: 140 nM
Cowpox virus [1]
  EC50: 80 nM
Cowpox virus [2]
  Ratio EC50: 20
Vaccinia virus [3]
  EC50: 100 nM
Vaccinia virus [4]
  Ratio EC50: 20
Vaccinia virus [5]
  Ratio EC50: 20
[6]
  CC50 at 168 h: > 100000 nM

## O=c1[nH]c(=O)n([C@H]2C[C@H](O)[C@@H](CO)S2)cc1I
Vaccinia virus [7]
  Activity: 0%
Cowpox virus [8]
  Activity: 0%
Cowpox virus [9]
  Activity: 0%
Cowpox virus [10]
  Activity: 13%
Vaccinia virus [11]
  Activity: 7%
Cowpox virus [12]
  Activity: 7%
Cowpox virus [13]
  Activity: 100%
Cowpox virus [14]
  Activity: 27%
Cowpox virus [15]
  Activity: 14%
HFF
  IC50: 3000 nM
Vaccinia virus [16]
  EC50: 600 nM
Cowpox virus [17]
  Activity: 87%
Cowpox virus [18]
  Activity: 13%
Vaccinia virus [19]
  EC50: 40 nM
Cowpox virus [20]
  Activity: 14 days
Cowpox virus [21]
  Activity: 9.7 days
Cowpox virus [22]
  Activity: 0%
Cowpox virus [23]
  Activity: 0%
Cowpox virus [24]
  Activity: 0%
Vaccinia virus [25]
  Activity: 0%
Vaccinia virus [26]
  Activity: 11%
Vaccinia virus [3]
  EC50: 500 nM
Cowpox virus [27]
  Activity: 0%
Cowpox virus [28]
  Activity: 0%
Cowpox virus [29]
  Activity: 18%
Cowpox virus [30]
  Activity: 16 days
Cowpox virus [31]
  Activity: 9.8 days
Cowpox virus [32]
  Activity: 13.3 days
[6]
  CC50 at 168 h: > 100000 nM
Cowpox virus [33]
  Activity: 7%
Cowpox virus [34]
  Activity: 0%

## CC(=O)OC[C@H]1S[C@@H](n2cc(I)c(=O)[nH]c2=O)C[C@@H]1OC(C)=O
HFF
  IC50: 26000 nM
Cowpox virus [1]
  EC50: 330 nM
Cowpox virus [2]
  Ratio EC50: 20
Vaccinia virus [3]
  EC50: 900 nM
Vaccinia virus [4]
  Ratio EC50: 20
Vaccinia virus [5]
  Ratio EC50: 20
[6]
  CC50 at 168 h: > 100000 nM

## Nc1nc(=O)n([C@@H]2S[C@H](CO)[C@@H](O)[C@@H]2O)cc1F
HFF
  IC50: < 30 nM
Cowpox virus [1]
  EC50: 400 nM
Cowpox virus [2]
  Ratio EC50: 20
Vaccinia virus [3]
  EC50: 100 nM
Vaccinia virus [4]
  Ratio EC50: 20
Vaccinia virus [5]
  Ratio EC50: 20
[6]
  CC50 at 168 h: > 100000 nM

## Cc1cn([C@H]2C[C@H](O)[C@@H](CO)S2)c(=O)[nH]c1=O [4'-THIOTHYMIDINE]
HFF
  IC50: < 30 nM
Cowpox virus [1]
  EC50: 20 nM
Cowpox virus [2]
  Ratio EC50: 20
Vaccinia virus [3]
  EC50: 30 nM
Vaccinia virus [4]
  Ratio EC50: 20
Vaccinia virus [5]
  Ratio EC50: 20
[6]
  CC50 at 168 h: > 100000 nM

## Nc1ccn(C[C@@H](CO)OCP(=O)(O)O)c(=O)n1.O.O [CIDOFOVIR]
Cowpox virus [35]
  Activity: 10.5 days
Cowpox virus [36]
  Activity: 80%
Vaccinia virus [37]
  Activity: 0%
Cowpox virus [38]
  Activity: 12 days
Cowpox virus [39]
  Activity: 27%
HFF
  IC50: 1900 nM
Vaccinia virus [19]
  EC50: 10000 nM
Cowpox virus [40]
  Activity: 0%
Cowpox virus [41]
  Activity: 0%
Cowpox virus [42]
  Activity: 0%
Vaccinia virus [3]
  EC50: 19000 nM
[6]
  CC50 at 168 h: > 317000 nM
Cowpox virus [34]
  Activity: 0%

## O=c1[nH]c(=O)n([C@H]2C[C@H](O)[C@@H](CO)O2)cc1I [IDOXURIDINE]
Vaccinia virus [16]
  EC50: 17000 nM
Vaccinia virus [19]
  EC50: 2800 nM

## O=C(NN1C(=O)[C@@H]2[C@@H]3C=C[C@@H]([C@H]4C[C@@H]34)[C@@H]2C1=O)c1ccc(C(F)(F)F)cc1 [TECOVIRIMAT]
Vaccinia virus [16]
  EC50: > 100000 nM
Vaccinia virus [19]
  EC50: 70 nM

## Nc1ccn([C@@H]2S[C@H](CO)[C@@H](O)[C@@H]2O)c(=O)n1 [THIARABINE]
HFF
  IC50: 1000 nM
Cowpox virus [1]
  EC50: 1600 nM
Cowpox virus [2]
  Ratio EC50: 20
Vaccinia virus [3]
  EC50: 300 nM
Vaccinia virus [4]
  Ratio EC50: 20
Vaccinia virus [5]
  Ratio EC50: 20
[6]
  CC50 at 168 h: > 88000 nM
